Laboratory results: US8247551B2, “Lead sensor and methods of use” (priority 2007, dated 2012)

Assays:
[1] = Apparent dissociation constant for Pb2+ from fluorescence of the complex (Hill fit); assay type: binding; conditions: pH=10; read-out: apparent dissociation coefficient, Kd, for Pb^2+
Excerpt: [drawing 8] or the corresponding thiolate compound (i.e., where one or both thiols of the ene-dithiol are deprotonated). In the presence of Pb^2+ ions and a hydrolyzing agent, the dithiocarbonate functionality of compound IV may be hydrolyzed and the resulting fluorescent binder compound binds with the Pb^2+ to form a Pb^2+/binder complex. According to specific embodiments, the fluorescent binder of the present disclosure has a high sensitivity for Pb^2+ ions, even in the presence of other metal ions. […] In other embodiments, the Kd may be less than 300 nM, or in certain embodiments less than 250 nM. […] As will be understood by one of ordinary skill in the art, the Kd for binding of Pb^2+ may vary according to the conditions of the experiment, including, but not limited to solvent, temperature, pH, etc. It should be noted that in other embodiments, other compounds represented by Formula I may also serve as selective binders of lead, or other metal ions.
(§1) All spectroscopic measurements were recorded in a solution of 2.5% methanol (for solubility reason) and water. HPLC grade MeOH and distilled water were used for each measurement. Absorption spectra were measured on a Varian Cary 300 spectrometer. Samples for absorption measurement were performed in 1-cm 1-cm quartz cuvettes (3.5 mL volume, Starna). […]

[2] = Fluorescence quantum yield in reference to fluorescein; assay type: physicochemical
Description: For an acetonitrile solution of fluorophore 7, when excited at […] or 384 nm band, an emission at 411 nm is observed. Similarly when a methanolic solution of fluorophore 7 is excited at 385 nm or 367 nm, an emission at 415 nm is observed. Finally for a solution of fluorophore 7 in the mixed solvent, when excited at 389 nm, an emission is observed at 423 nm (see FIG. 10). A 0.12 value for the quantum yield of fluorophore 7 in methanol was determined in reference to fluorescein in 0.1 M NaOH (φ=0.95) (using the procedure reported by Brannon, et al., J. Phys. Chem. 1978, 82, 705). Fluorophores of the present disclosure are further described in U.S. application Ser. No. 12/020,343, filed Jan. […]
When the fluorescent binder according to the present embodiments binds with Pb^2+ to form a Pb^2+/binder complex, the complex fluoresces with a high optical brightness. For example, according to the present embodiments, the unbound fluorescent binder represented by Formula V (or Formula IV, in its protected form) may have an excitation band with a absorbance maximum λmax at a wavelength centered around 415 nm, an emission band with a emission maximum λmax centered around 465 and a quantum yield for the fluorescence emission of φ=0.12. […] Quantum yields were calculated with reference to the quantum yield of fluorescein (φ=0.95). […]

[3] = Turn-on fluorescence response to Pb2+ (Example 3, FIG. 49); conditions: 5 μM, 2.5% methanol-water; unbound at 465 nm, Pb^2+ complex at 423 nm
Excerpt: When the fluorescent binder according to the present embodiments binds with Pb^2+ to form a Pb^2+/binder complex, the complex fluoresces with a high optical brightness. For example, according to the present embodiments, the unbound fluorescent binder represented by Formula V (or Formula IV, in its protected form) may have an excitation band with a absorbance maximum λmax at a wavelength centered around 415 nm, an emission band with a emission maximum λmax centered around 465 and a quantum yield for the fluorescence emission of φ=0.12. When the fluorescent binder is bound to Pb^2+ ions, the resulting Pb^2+/binder complex may have an excitation band with a λmax centered around 389 nm, an emission band with a λmax centered around 423 nm, and a quantum yield of φ=0.63. Quantum yields were calculated with reference to the quantum yield of fluorescein (φ=0.95). […]
In this Example, the “turn on” response of the fluorophore corresponding to Formula V (Formula IV in protected form) was determined. The fluorescence emission spectrum of a 5 μM solution of the fluorophore in 2.5% methanol-water was recorded with a maximum emission intensity observed at λmax=465 nm (expanded spectrum shown in the inset in FIG. 49). […] The fluorescence emission spectrum of the resulting Pb^2+/fluorophore complex was recorded with a maximum fluorescence emission intensity observed at λmax=423 nm as presented in FIG. 49.

[4] = Fluorescence emission with Pb2+ versus other metal ions (Example 5, FIG. 51); conditions: 5 μM fluorophore, 75 μM Pb^2+, other metal ion 75 μM or 2 millimolar
Excerpt: According to certain embodiments, the fluorescent binder discussed herein selectively binds to Pb^2+ over other metal ions including other transition metal ions. According to various embodiments, the fluorescence emission intensity of the Pb^2+/binder complex is greater than a fluorescence emission intensity of other metal ion/binder complexes. Other metal ions that may form a metal ion/binder complex that has a lower fluorescence emission intensity than that of the Pb^2+/binder complex include, but are not limited to Li^+, Na^+, K^+, Ca^2+, Mg^2+, Fe^2+, Co^2+, Ni^2+, Cu^2+, Zn^2+, Cd^2+, Mn^2+, Hg^2+, Sn^2+, As^3+, and mixtures thereof. For example, according to one non-limiting embodiment, the Pb^2+/binder complex in the presence of the other metal ions may have a fluorescence emission intensity at least about 10 times greater than the fluorescence emission intensity of another metal ion/binder complex. In other embodiments, the Pb^2+/binder complex in the presence of the other metal may have a fluorescence emission intensity at least about 20 times greater than the fluorescence emission intensity of another metal ion/binder complex. FIG. 51 compares the fluorescence emission intensity of the Pb^2+/binder complex in the presence of the other metal with the fluorescence emission intensity of the other metal ion/binder complexes (i.e., in the absence of Pb^2+). […]

Solubility = assay type: physicochemical
Excerpt: (§2) These fluorophores are soluble in common organic solvents, for example, but not limited to, chloroform, methylene chloride, acetonitrile, and methanol and in mixtures of methanol and water. […] There is a shoulder near […] and no transition was observed beyond 430 nm. The molar extinction coefficients of these bands are near 10000 or higher. […] The spectral features remain unchanged in a mixed solvent such as 2.5% methanol 97.5% water. […] Thus, in principle, this compound can be used as a pH sensor. That is, the fluorescence emission intensity may vary according to the pH of the environment or solution that the fluorophore is in.
In addition, the Pb^2+/binder complex fluoresces with greater emission intensity over a wide pH range in aqueous solutions. According to one embodiment the Pb^2+/binder complex fluoresces with a high fluorescence emission intensity, for example with a quantum yield of greater than 0.5 (φ>0.5), at pH values of 10 or less. […] Thus, the term “high fluorescence emission intensity” means a fluorescence emission intensity having a quantum efficiency of greater than 0.5 (φ>0.5 as measured relative to a fluorescein reference). […] With other fluorophores, the fluorescence emission intensity of the fluorophore may decrease at low pH levels. For comparison, as discussed herein, the quantum yield for fluorescence emission of fluorescein decreases at pH levels less than ˜8.

[5] = Quantitative Pb2+ detection in NIST SRM 1643e Trace Elements in Water; conditions: 1 μM compound, NEt4OH 2:1, 2.5% MeOH and water
Description: The fluorescence emission intensity of the Pb^2+/complex in a sample may be measured and compared to a standard calibration plot or values to determine the Pb^2+ ion concentration in the sample. For example, To further examine the sensitivity and accuracy of the sensor, a NIST standard of trace elements in water (SRM® 1643e) in the concentration range of 1-50 ppb Pb^2+ was used and probed with 1 μM of a compound having the structure of Formula IV. In this case, accurate fluorescence responses were observed from 50 ppb to as low as 10 ppb. Further, compound IV was also used in quantitating the concentration of Pb^2+ in solutions prepared from a lead standard (NIST SRM® 3128).
as §1, with “Starna). Fluorescence spectra were measured on a Photon Technology International QuantaMaster™4 spectrofluorometer. Fluorescence measurements were performed in 1-cm 1-cm quartz cuvettes (3.5 mL volume, NSG Precision Cells). Fluorescence quantum yields were determined in reference to fluorescein in 0.1 NaOH (φ=0.95).” for “Starna).”

[6] = Stability in acid and base; assay type: physicochemical
Excerpt: as §2

CC1(C)Oc2nc3ccccc3nc2C(S)=C1S [Formula V]
Kd [1]: 217 nM
quantum yield for the fluorescence emission ([2]; unbound binder or Pb^2+ complex, reference fluorescein (φ=0.95)): 0.12
maximum fluorescence emission intensity [3]: ~6000 counts/second
fluorescence emission intensity with Pb^2+ plus other metal ion versus other metal ion alone [4]: significantly greater fluorescence emission intensity
solubility in aqueous solution (Solubility): soluble in aqueous solution

CC1(C)Oc2nc3ccccc3nc2-c2sc(=O)sc21 [Compound 7, 4,4-dimethyl-4H-5-oxa-1,3-dithia-6,11-diaza-cyclopenta[a]anthracen-2-one]
quantum yield ([2]; in methanol, reference fluorescein in 0.1 M NaOH): 0.12
Pb^2+ range detected quantitatively by increase in fluorescence response [5]: 10-50 ppb
stability in acid ([6]; acid): stable in acid
stability in base ([6]; base (pH>7)): transforms into a less fluorescent substance
